Measured values: article PMC11111408, “Concurrent inhibition of oncogenic and wild-type RAS-GTP for cancer therapy” (Nature, 2024)
Like-named read-outs stand apart in the source and are kept apart here.

Test system: panel of 183 cancer cell lines
Test: Cell panel of 183 cancer cell lines, viability (CTG) at Crown Bioscience
Format: cell-based
Conditions: Homo sapiens
Description: The panel consisted of cell lines with any substitution at position 12 of KRAS, NRAS or HRAS (KRAS(G12X), NRAS(G12X), HRAS(G12X)); substitutions in KRAS, NRAS or HRAS at any position other than 12, 13 and 61 (KRAS(other/VUS), NRAS(other/VUS), HRAS(other/VUS)); other oncogenic mutations in the RAS pathway (ABL1, ALK, ARAF, BRAF, CBL, EGFR, ERBB2, ERBB3, ERBB4, ERRFI1, FGFR1, FGFR2, FGFR3, FGFR4, FLT3, HRAS, IGF1R, JAK2, KIT, MAP2K1, MAP2K2, MAPK1, MET, NF1, NRAS, NTRK1, NTRK2, NTRK3, PDGFRA, PTPN11, RAC1, RAF1, RASA1, RET, RIT1, ROS1 and SOS1); and no oncogenic mutations in the RAS pathway. […] Cells were incubated for 120 h, and cell viability was determined using the CellTiter-Glo Luminescent Cell Viability Assay (CTG) (Promega, G7572) according to the manufacturer’s instructions.

For `CCn1c(-c2cc(N3CCN(C4CC4)CC3)cnc2[C@H](C)OC)c2c3cc(ccc31)-c1csc(n1)C[C@H](NC(=O)[C@H]1[C@@H]3COC[C@@H]31)C(=O)N1CCC[C@H](N1)C(=O)OCC(C)(C)C2` [RMC-7977], the EC50 (read-out: RMC-7977 EC50 (M), HEP3B217, RAS pathway WT, Liver) was 9.36e-09 M, the EC50 (read-out: RMC-7977 EC50 (M), HM7, KRAS G12D, Large intestine/Colorectum) was 1.86e-08 M and the EC50 (read-out: RMC-7977 EC50 (M), HS852T, NRAS G12V, Skin) was 4.07e-08 M. It also gave an EC50 (read-out: RMC-7977 EC50 (M), HUH28, PTPN11 mut, Liver/Bile duct) of 3.91e-08 M, an EC50 (read-out: RMC-7977 EC50 (M), KG1, FGFR fusion, Blood/leukemia) of 9.16e-09 M and an EC50 (read-out: RMC-7977 EC50 (M), L82, ALK fusion, Blood/lymphoma) of 2e-08 M. For the same compound, the EC50 (read-out: RMC-7977 EC50 (M), NOZ, KRAS G12V, Liver/Bile duct) was 4.17e-09 M, the EC50 (read-out: RMC-7977 EC50 (M), OZ, KRAS Q61L, Liver/Bile duct) was 3.55e-09 M and the EC50 (read-out: RMC-7977 EC50 (M), PC9, EGFR mut, Lung) was 1.56e-08 M. The EC50 (read-out: RMC-7977 EC50 (M), RBE, KRAS G12V, Liver/Bile duct) was 3.39e-10 M, the EC50 (read-out: RMC-7977 EC50 (M), RKO, BRAF V600E, Large intestine/Colorectum) was greater than 1e-06 M and the EC50 (read-out: RMC-7977 EC50 (M), RT4, FGFR fusion, Bladder) was 1.32e-08 M. For the same compound, the EC50 (read-out: RMC-7977 EC50 (M), SCH, RAS pathway WT, Stomach) was greater than 1e-06 M, the EC50 (read-out: RMC-7977 EC50 (M), SNU719, NRAS Q61L, Stomach) was 6.76e-09 M and the EC50 (read-out: RMC-7977 EC50 (M), SNU2535, ALK fusion, Lung) was 6.42e-09 M. For the same compound, the EC50 (read-out: RMC-7977 EC50 (M), SNUC2A, KRAS G12D, Large intestine/Colorectum) was 2.45e-09 M, the EC50 (read-out: RMC-7977 EC50 (M), SR, ALK fusion, Thymus) was 1.41e-08 M and the EC50 (read-out: RMC-7977 EC50 (M), T24, HRAS G12V, Bladder) was 1.2e-09 M. The EC50 (read-out: RMC-7977 EC50 (M), T84, KRAS G13D, Large intestine/Colorectum) was 5.62e-08 M, the EC50 (read-out: RMC-7977 EC50 (M), TE441T, RAS pathway WT, Muscle) was greater than 1e-06 M and the EC50 (read-out: RMC-7977 EC50 (M), TJ905, NF1 LOF, Brain&Nerves) was 1.06e-07 M. For the same compound, the EC50 (read-out: RMC-7977 EC50 (M), YCC2, KRAS G12S, Stomach) was 2.19e-09 M, the EC50 (read-out: RMC-7977 EC50 (median), median over ALK fusion cell lines) was 1.41e-08 M and the EC50 (read-out: RMC-7977 EC50 (median), median over BRAF V600E cell lines) was greater than 1e-06 M. For the same compound, the EC50 (read-out: RMC-7977 EC50 (median), median over BRAF mut other cell lines) was 7.54e-08 M, the EC50 (read-out: RMC-7977 EC50 (median), median over EGFR mut cell lines) was 4.52e-09 M and the EC50 (read-out: RMC-7977 EC50 (median), median over ERBB3 mut cell lines) was 5.92e-09 M. The EC50 (read-out: RMC-7977 EC50 (median), median over FGFR fusion cell lines) was 7.08e-09 M, the EC50 (read-out: RMC-7977 EC50 (median), median over HRAS G12D cell lines) was 8.45e-09 M and the EC50 (read-out: RMC-7977 EC50 (median), median over HRAS G12V cell lines) was 1.2e-09 M. The EC50 (read-out: RMC-7977 EC50 (median), median over HRAS G161R cell lines) was greater than 1e-06 M, the EC50 (read-out: RMC-7977 EC50 (median), median over HRAS L133R cell lines) was 1.23e-08 M and the EC50 (read-out: RMC-7977 EC50 (median), median over HRAS Q61H cell lines) was 4.57e-09 M. For the same compound, the EC50 (read-out: RMC-7977 EC50 (median), median over HRAS Q61L cell lines) was 1.62e-08 M, the EC50 (read-out: RMC-7977 EC50 (median), median over KRAS A59T cell lines) was 1.02e-09 M and the EC50 (read-out: RMC-7977 EC50 (median), median over KRAS G12A cell lines) was 1.2e-08 M. For the same compound, the EC50 (read-out: RMC-7977 EC50 (median), median over KRAS G12C cell lines) was 1.84e-09 M, the EC50 (read-out: RMC-7977 EC50 (median), median over KRAS G12D cell lines) was 2.86e-09 M and the EC50 (read-out: RMC-7977 EC50 (median), median over KRAS G12R cell lines) was 2.76e-09 M. For the same compound, the EC50 (read-out: RMC-7977 EC50 (median), median over KRAS G12S cell lines) was 3.21e-09 M, the EC50 (read-out: RMC-7977 EC50 (median), median over KRAS G12V cell lines) was 1.15e-09 M and the EC50 (read-out: RMC-7977 EC50 (median), median over KRAS G13C cell lines) was 1.41e-08 M. For the same compound, the EC50 (read-out: RMC-7977 EC50 (median), median over KRAS G13D cell lines) was 3.16e-08 M, the EC50 (read-out: RMC-7977 EC50 (median), median over KRAS P121H cell lines) was greater than 1e-06 M and the EC50 (read-out: RMC-7977 EC50 (median), median over KRAS Q61H cell lines) was greater than 1e-06 M. It also gave an EC50 (read-out: RMC-7977 EC50 (median), median over KRAS Q61K cell lines) of 3.22e-09 M, an EC50 (read-out: RMC-7977 EC50 (median), median over KRAS Q61L cell lines) of 9e-09 M and an EC50 (read-out: RMC-7977 EC50 (median), median over KRAS R97I cell lines) of 2.75e-09 M. For the same compound, the EC50 (read-out: RMC-7977 EC50 (median), median over MET amp cell lines) was 4.57e-09 M, the EC50 (read-out: RMC-7977 EC50 (median), median over NF1 LOF cell lines) was 3.25e-08 M and the EC50 (read-out: RMC-7977 EC50 (median), median over NRAS G12V cell lines) was 4.07e-08 M. The EC50 (read-out: RMC-7977 EC50 (median), median over NRAS Q61K cell lines) was 1.91e-09 M, the EC50 (read-out: RMC-7977 EC50 (median), median over NRAS Q61L cell lines) was 6.76e-09 M and the EC50 (read-out: RMC-7977 EC50 (median), median over NRAS Q61R cell lines) was 9.12e-09 M. It also gave an EC50 (read-out: RMC-7977 EC50 (median), median over NRAS Y137H cell lines) of 2.88e-08 M, an EC50 (read-out: RMC-7977 EC50 (median), median over NTRK1 fusion cell lines) of 5.14e-09 M and an EC50 (read-out: RMC-7977 EC50 (median), median over PTPN11 mut cell lines) of 7.95e-09 M. It also gave an EC50 (read-out: RMC-7977 EC50 (median), median over RAS pathway WT cell lines) of 1e-07 M, an EC50 (read-out: RMC-7977 EC50 (median), median over RET fusion cell lines) of 5.15e-09 M and an EC50 (read-out: RMC-7977 EC50 (median), median over ROS1 fusion cell lines) of 7.49e-09 M.
